Measured values reported in patent US20090099240A1, “METHODS FOR TREATING ENERGY METABOLISM DISORDERS BY INHIBITING FATTY ACID AMIDE HYDROLASE ACTIVITY” (N.V. Organon, priority 2006, published 2009).

Columns and labels:
[1] = system: APOE*3-Leiden transgenic (E3L) mice; experiment: Lipid content of liver (TLC) in E3L mice; assay type: in vivo, mouse; conditions: end of four-week treatment
Excerpt: (§1) E3L mice were fed a high cholesterol (1% w/w) diet (HC diet) for a period of four weeks. Animals were then matched based on their plasma cholesterol levels, and were divided into five groups, each of which was maintained on an HC diet.
A reduction of Red Oil O staining in liver generally indicates reduced liver lipid content. We therefore quantified levels of lipids in livers from each animal, as described in Havekes et al. (1987), Biochem. J., 247:739-746; Delsing et al. (2005), J. Cardiovasc. Pharmacol., 45:53-60; and Post et al. (2004), ATVB, 24:768-774. Liver tissue homogenates were prepared. Lipids were extracted, dried under nitrogen, dissolved in chloroform, and spotted onto a channeled 20×20 cm silica gel thin layer chromatography (TLC) plate. Lipids were then separated, TLC plates were warmed up to visualize bands, and bands were quantified using an internal standard as reference.

[2] = system: APOE*3-Leiden transgenic (E3L) mice; experiment: Total plasma cholesterol in E3L mice; assay type: in vivo, mouse
Excerpt: (§2) We assessed the effect of inhibiting FAAH activity on body weight, body fat, triglyceride levels, cholesterol levels in APOE*3-Leiden transgenic (E3L) mice, an animal model of hyperlipidemia. […] See van Vlijmen et al. (1994), J. Clin Invest., 93:1403-1410. Indeed, upon high fat and cholesterol feeding, these mice develop various stages of atherosclerotic lesions depending on plasma total cholesterol levels and resembling those found in humans. See Groot et al. (1996), Arterioscler. Thromb. Vasc. Biol., 16:926-933; Versch ren et al. (2005), Arterioscler. Thromb. Vasc Biol., 25:161-167; and Lutgens et al. (1999), Circulation; 99(2):276-283). Thus, the E3L mouse is a suitable model for the investigation of the efficacy of anti-atherosclerotic drugs.
as §1
(§3) Blood samples were collected at days 0, 14, and 28 of the treatment period. At the end of the treatment period, animals were sacrificed, and various tissues and organs were analyzed. Unless otherwise indicated, values are mean±standard deviation (SD).

[3] = system: APOE*3-Leiden transgenic (E3L) mice; experiment: Total plasma triglyceride levels in E3L mice; assay type: in vivo, mouse
Excerpt: as §2, §1, §3

[4] = system: APOE*3-Leiden transgenic (E3L) mice; experiment: Organ and tissue weights in E3L mice on high cholesterol diet
Excerpt: as §2, §1, §3

[5] = system: APOE*3-Leiden transgenic (E3L) mice; experiment: Plasma alanine aminotransferase (ALAT) activity in E3L mice; assay type: in vivo, mouse; conditions: day 28
Method: as §1
Levels of plasma alanine aminotransferase (ALAT) were determined on day 28 (table 7). Plasma ALAT is a measure of hepatic stress and increases in plasma ALAT levels are often associated with liver damage. […] Thus, a reduction in plasma ALAT levels is associated with improved liver function.

[6] = E3L mice, HC diet, end of four-week treatment, mean ± SD

For CC(C)OC(=O)C(C)(C)Oc1ccc(C(=O)c2ccc(Cl)cc2)cc1 [Fenofibrate, fenofibrate], the “Lipid Content of Liver: Cholesterol Esters” value [1] was 44 ± 6, the “Lipid Content of Liver: Free Cholesterol” value [1] was 21 ± 2 and the “Total Plasma Cholesterol” value ([2]; day 0) was 13.6 ± 4.2 mM. For the same molecule, the “Total Plasma Cholesterol” value ([2]; day 14) was “*6.5 ± 1.0 mM”, the “Total Plasma Cholesterol” value ([2]; day 28) was “*6.2 ± 1.3 mM” and the “Total Plasma Triglyceride Levels” value ([3]; day 0) was 1.6 ± 0.4 mM. The “Total Plasma Triglyceride Levels” value ([3]; day 14) was “^#*0.7 ± 0.2 mM”, the “Total Plasma Triglyceride Levels” value ([3]; day 28) was “^#*0.7 ± 0.2 mM” and the “Organ and Tissue Weights: Fat (gonadal fat)” value [4, 6] was 0.48 ± 0.14 g. For the same molecule, the “Organ and Tissue Weights: Heart” value [4, 6] was 0.14 ± 0.02 g, the “Organ and Tissue Weights: Liver” value [4, 6] was “^#1.77 ± 0.28^ g” and the “Organ and Tissue Weights: Lung” value [4, 6] was 0.21 ± 0.05 g. The “liver weight, in words” value ([4]; relative to its control group) was “significant increase” and the “Plasma Alanine Amino Transferase Activity” value [5] was 112.5 ± 10.4 U/L.
